Data as given in publication PMC8068288, “Novel Thiol Containing Hybrid Antioxidant-Nitric Oxide Donor Small Molecules for Treatment of Glaucoma” (Antioxidants, 2021).

How the values were obtained:
intraocular pressure [1] = assay: IOP lowering in dexamethasone induced ocular hypertensive (OHT) mouse eyes; assay type: in vivo; details: periocular once every week for 4 weeks, baseline 11.85 ± 2.27
Description: Mice (C57BL/6J, 12 weeks, n = 3–5) were anesthetized and the periocular injection of dexamethasone acetate (DEX-Ac, 10 mg/mL) or vehicle (20 μL) was administered immediately under the isoflurane over the course of 10 to 15 s. The procedure was performed in both eyes of each mice after it was numbed with proparacaine as reported previously. Mice were treated with DEX-Ac or vehicle once per week for four weeks to achieve the desired IOP elevation. Baseline IOP was measured using tonometer. […] The entire dosing schedule was repeated 3 times in each mouse eye. IOP plots were generated from IOP values obtained from the treated eyes.

intraocular pressure [2] = tested on: intraocular pressure; parameters: method as in PMID 8675417; details: rabbit eyes, 20 mM, intraocular injection; cited from earlier work
NTM-5 cells [3] = assay: In vitro peroxynitrite measurement assay; assay type: cell-based, human; details: 0.1 µM and 1 mM, with or without TBHP 350 µM
Description: Human transformed trabecular meshwork (NTM-5) cells (20,000 cells/well/90 µL) were seeded in 96-well plates (Griener bio-one black plate) and stained with 10 µL of 10X Peroxynitrite Sensor Green solution for 1 h. […] SIN-1 was used as a positive control. Detection of peroxynitrite was done using Peroxynitrite Assay Kit (abcam-ab233468-cell based). Fluorescence signals were measured using a microplate reader (Cytation5) at Ex/Em = 485/530 nm at time intervals (15 min, 30 min, 1 h, 2 h, and 3 h). The experiments were done in duplicates.

NTM-5 cells [4] = assay: In vitro cell viability (MTT) assay; details: for cytotoxicity: NTM-5 cells, 24 h, up to 1000 µM
intraocular pressure [5] = tested on: intraocular pressure; parameters: method as in private communication, unpublished result; details: monkey eyes; ref private communication, unpublished result; cited from earlier work
[6] = Total nitrite/NO release by Griess assay in buffer (aqueous stability); assay type: physicochemical; details: even after 3 days
Description: The total nitrite released from the compounds in buffer and in cell supernatant were measured by Griess assay as reported by us previously. In brief, compounds (SA-2, SA-9, and SA-10) in buffer at different concentrations (1 mM, 500 µM, 250 µM 125 µM, 62.5 µM, 31.25 µM, and 15.625 µM) or supernatant collected from Human transformed trabecular meshwork (NTM-5) cells were added to a 96-well plate. 1% Sulphanilamide in 5% phosphoric acid and 0.1% N-1-napthylethylenediamine dihydrochloride (NED) were added to experimental samples sequentially at room temperature and away from light. SIN-1 was used as reference standard. […]

[7] = Superoxide anion radical scavenging assay (pyrogallol/WST-1) in buffer; assay type: biochemical; details: for AUC0–2.5 h of % superoxide scavenging response: 1 mM compound, pyrogallol 1 mM; for earliest time of superoxide (O2−) radical scavenging: buffer solution and TM cells; for superoxide radicals scavenged: dose response 1-1000 µM; for AUC0-15 of % superoxide scavenging response: different concentrations 1-1000 µM, 15 minutes time point
Description: (§1) The ROS scavenging ratio was determined using a chemical assay where WST-1 was used as superoxide scavenger produced by pyrogallol following a reported protocol. Briefly, the superoxide anion radical scavenging activity was determined spectrophotometrically by measuring the formation of WST-1 formazan at 450 nm. WST-1 (40 µL, 50 µM) was added to the compounds (or corresponding solution) in a final volume of 160 µL in 50 mM ammonium hydrogen carbonate buffer, 0.5 mM EDTA, pH 9.3. Reaction was launched by adding 40 µL 1 mM pyrogallol. The operation was based on the 96-well microplate, and measurement was performed at different time points under 37 °C by Cytation5 Microplate Reader. Baicalein (1 mM) was used as positive control. Compounds SA-2, SA-9, and SA-10 were used in concentrations ranging from 1 µM, 10 µM, 100 µM, and 1000 µM. The superoxide anion radical scavenging ratio % was calculated according to the following formula:Scavenging ratio (%) = A0 − (A1 − A2)/A0 × 100%

[8] = Hypochlorous acid (HOCl) radical scavenging assay (TNB) in buffer; assay type: biochemical
Description: This assay used the redox reaction between 5-thio-2-nitrobenzoic acid (TNB) and HOCl to form dithio-TNB. Using the method described previously, we assessed the % TNB remaining with or without treatment with SA compounds. Compounds SA-2, SA-9, and SA-10 were used in concentrations ranging from 0.1 µM, 1 µM, 10 µM, 100 µM, and 1000 µM. Lipoic acid (1 mM) was used as positive control.

NTM-5 cells [9] = assay: Total nitrite release by Griess assay in NTM-5 cell supernatant; assay type: cell-based, human; details: for NO released in NTM-5 cell supernatants: 28 h at 37 °C; for start of NO release: buffer solution and TM cells
Description: The total nitrite released from the compounds in buffer and in cell supernatant were measured by Griess assay as reported by us previously. In brief, compounds (SA-2, SA-9, and SA-10) in buffer at different concentrations (1 mM, 500 µM, 250 µM 125 µM, 62.5 µM, 31.25 µM, and 15.625 µM) or supernatant collected from Human transformed trabecular meshwork (NTM-5) cells were added to a 96-well plate. 1% Sulphanilamide in 5% phosphoric acid and 0.1% N-1-napthylethylenediamine dihydrochloride (NED) were added to experimental samples sequentially at room temperature and away from light. SIN-1 was used as reference standard. UV Absorbances (Cytation 5) were measured at specific timepoints (0, 5 min, 10 min, 15 min, 30 min, 24 h, and 28 h) at 520 nm.
(§2) The experiments were repeated twice with four technical replicates.

NTM-5 cells [10] = assay: In vitro cytoprotection assay against TBHP (MTT); assay type: cell-based; details: Homo sapiens, TBHP 350 µM, read-out: EC50 of increase in cell viability (cytoprotection)
Description: After 24 h of treatment, cell proliferation was measured using MTT assay. All the experiments are done in duplicate with four experimental replicates.

NTM-5 cells [11] = assay: Superoxide scavenging ratio in NTM-5 cell supernatant (pyrogallol assay), with or without TBHP; assay type: cell-based, human; details: for AUC0-3h of superoxide scavenging ratio: NTM-5 cell supernatant, 18 h treatment, 0.1-1000 µM
Description: as §1, with “100% […]” for “100%”
as §2
Figure 2 Superoxide scavenging ability of SA compounds in buffer and cells. (a) The % of superoxide scavenging response from 1 mM concentration of SA-2, SA-9, and SA-10 in pyrogallol (Pyr, 1 mM) induced superoxide induction assay at different time points in buffer. The AUC0–2.5 h for SA-2, SA-9, and SA-10 were 1592 ± 37.87, 1355 ± 42.62, and 2350 ± 69.26, respectively. (b) Comparison of the % ROS scavenging activity of SA-2, SA-9, and SA-10 with control after 15 min of treatment of pyrogallol. (c) The superoxide scavenging ratio (%) after 18 h treatment of 10 µM concentration of SA-2, SA-9, and SA-10 to NTM-5 cell supernatant using pyrogallol induced superoxide induction assay at different time points. (d) The superoxide scavenging ratio (%) of 10 µM concentration of SA-2, SA-9, and SA-10 in NTM-5 cell supernatant. The cells were previously treated with 5.5 mM of TBHP for 30 min followed by SA compounds and incubated for 18 h. Control is untreated cells. Three technical replicates were used for each experiment and all experiments were repeated 2 times. * p < 0.05, ** p < 0.005, *** p < 0.001, **** p < 0.0001, One-way ANOVA for (b), and two-way ANOVA for (c,d).
Figure S1: Superoxide scavenging ability of SA compounds in buffer and cells. a) The % of superoxide scavenging response from different concentrations of SA-2, SA-9 and SA-10 in pyrogallol (1 µM, 10 µM, 100 µM and 1,000 µM) induced superoxide induction assay at 15 minutes time point in buffer solution. The […]
superoxide scavenging ratio (%) after 18h treatment of different concentrations (0.1 µM, 1 µM, 10 µM, 100 µM and 1,000 µM) of SA-2, SA-9 and SA-10 to NTM-5 cell supernatant with or without TBHP (5.5 mM) using pyrogallol induced superoxide induction assay at 3h time point. Control is untreated cells. The cells were previously treated with 5.5 mM of TBHP for 30 minutes followed by SA compounds and TBHP and incubated for 18h. Control is untreated cells. e) The AUC0-3h for SA-2, SA-9 and SA-10 were 18902 ± 2714, […]
for each experiment and all experiments were repeated 2 times. N = 3.
(1 picture or pasted object on this page, not shown here)

[12] = parameters: method as in PMID 26832784; details: PBS 7.4; cited from earlier work

SMILES	ONOO− radical formation (NTM-5 cells [3])	cytotoxicity (NTM-5 cells [4])	AUC0–2.5 h of % superoxide scavenging response ([7]; buffer)	earliest time of superoxide (O2−) radical scavenging [7] [min]	superoxide radicals scavenged ([7]; buffer)	AUC0-15 of % superoxide scavenging response ([7]; buffer)	NO released in NTM-5 cell supernatants (NTM-5 cells [9])	start of NO release (NTM-5 cells [9]) [h]	EC50 (NTM-5 cells [10]) [µM]	AUC0-3h of superoxide scavenging ratio (NTM-5 cells [11]; with TBHP 5.5 mM)	AUC0-3h of superoxide scavenging ratio (NTM-5 cells [11]; without TBHP)	other results
CC(=O)OCC(=O)[C@@]1(O)[C@H](C)C[C@H]2[C@@H]3CCC4=CC(=O)C=C[C@]4(C)[C@@]3(F)[C@@H](O)C[C@@]21C [Dexamethasone, dexamethasone acetate]												IOP after dexamethasone injection (intraocular pressure [1]): 21.9 ± 5.92 mm/Hg
[NH-]c1c[n+](N2CCOCC2)no1 [SIN-1, linsidomine, reference compound]	significantly higher level											duration of IOP reduction (intraocular pressure [2]): up to 3 h
CC(C)(C)OO [TBHP, t-butyl hydrogen peroxide, reference compound]												EC50 (NTM-5 cells [4]; Homo sapiens, read-out: half-maximal effective concentration (EC50) dose of TBHP): 350 µM
CCOC(=O)[N-]c1cn(N2CCOCC2)n[o+]1 [Molsidomine, molsidomine]												NO release profile or IOP lowering activity (intraocular pressure [5]): no NO release profile or IOP lowering activity
Cl.[NH-]c1c[n+](C2CCS(=O)(=O)CC2)no1 [SA-10, (3-(1,1-dioxidotetrahydro-2H-thiopyran-4-yl)-1,2,3-oxadiazol-3-ium-5-yl) amide hydrochloride]	not as efficacious as SA-9	no cytotoxicity	2350 ± 69.26	7	16–40%	20433± 3128	dose dependently	> 24	0.0103	17893 ± 2714	21444 ± 1877	NO release in buffer [6]: did not observe any NO release; fold more potent than SA-2 in superoxide scavenging ([7]; 1 mM, buffer, 15 min after pyrogallol): 2.5 fold; fold more potent than lipoic acid in HOCl scavenging ([8]; 0.1 µM vs. 1 mM lipoic acid, 30 min): 10,000 fold; duration of HOCl scavenging effect ([8]; 0.1 µM–1000 µM in buffer): > 1 h; superoxide scavenging ability (ratio) (NTM-5 cells [11]; 10 µM for 18 h, NTM-5 cells insulted with TBHP, TBHP alone 2.5%): 20–25%; fold prevention of the decrease in superoxide scavenging ability vs TBHP alone (NTM-5 cells [11]; 10 µM for 18 h, TBHP-treated NTM-5 cells): ~ 10 fold
CC1(C)CC([n+]2cc([NH-])on2)CC(C)(C)N1O [SA-2, reference compound]	produced less	no cytotoxicity	1592 ± 37.87	7	16–40%	11604± 815.9	dose dependently	> 24	5.2	18285 ± 3960	18902 ± 2714	half-life in PBS7.4 [12]: < 1 h
